Laboratory results taken from patent publication US6476059B1, “Use of polycyclic 2-aminothiazole systems for the treatment of obesity” (Aventis Pharma Deutschland GmbH, priority 1999, dated 2002).

Columns and labels:
male NMRI mice = experiment: Anorectic effect: cumulative condensed milk consumption after gavage; type: in vivo; conditions: oral dose 50 mg/kg by gavage, feed withdrawn for 24 hours; for Reduction in the cumulative milk consumption as % of the controls: compared with untreated control animals; for cumulative milk consumption by the treated animals: condensed milk offered 30 minutes after administration, consumption determined every half hour for 7 hours
Method: The anorectic effect was tested on male NMRI mice. After withdrawal of feed for 24 hours, the test product was administered by gavage. The animals were housed singly and had free access to drinking water and, 30 minutes after administration of the product, they were offered condensed milk. The consumption of condensed milk was determined, and the general behavior of the animals was inspected, every half hour for 7 hours. The measured milk consumption was compared with that of untreated control animals.

Row | Structure (SMILES) | melting point [°C] | Reduction in the cumulative milk consumption as % of the controls (male NMRI mice) [%] | cumulative milk consumption by the treated animals (male NMRI mice)
1 | Cc1cccc(Oc2ccc3c(c2)Cc2sc(N)nc2-3)c1.Cl [Example 27, 6-m-Tolyloxy-8H-indeno[1,2-d]thiazol-2-yl-amine hydrochloride] | 174 | 79 | 5/0.74 ml
2 | CS(=O)(=O)c1ccc2c(c1)-c1nc(N)sc1C2.Cl | > 230 | – | –
3 | N#CNc1nc2c(s1)Cc1cc(Cl)ccc1-2 [Example 4, 6-Chloro-8H-indeno[1,2-d]thiazol-2-yl-cyanamide] | 225 | – | –
4 | Br.CN(C)c1nc2c(s1)Cc1cc(C#N)ccc1-2 [Example 2, 2-Dimethylamino-8H-indeno[1,2-d]thiazole-6-carbonitrile hydrobromide] | > 300 | 85 | 5/0.76 ml
5 | O=CNc1nc2c(s1)Cc1cc(Cl)ccc1-2 [Example 6, N-(6-chloro-8H-indeno[1,2-d]thiazol-2-yl)formamide] | 295 | 77 | 5/0.96 ml

Continued, in another order:

Row | melting point [°C] | Structure (SMILES) | Reduction in the cumulative milk consumption as % of the controls (male NMRI mice) [%] | cumulative milk consumption by the treated animals (male NMRI mice)
6 | 258 | CNc1nc2c(s1)Cc1cc(OCC(F)(F)C(F)(F)F)ccc1-2.Cl [Example 18, Methyl[6-(2,2,3,3,3-pentafluoropropoxy)-8H-indeno[1,2-d]thiazol-2-yl]amine hydrochloride] | 90 | 5/0.38 ml
7 | 210 | N=C(Nc1ccccc1)Nc1nc2c(s1)Cc1cc(Cl)ccc1-2 [Example 7, N-(6-Chloro-8H-indeno[1,2-d]thiazol-2-yl)-N′-phenylguanidine] | – | –
8 | 225 | CNc1nc2c(s1)Cc1cc(-c3cccnc3)ccc1-2.Cl [Example 26, Methyl(6-pyridin-3-yl-8H-indeno[1,2-d]thiazol-2-yl)amine hydrochloride] | 77 | 5/0.68 ml
